Experimental findings from patent US20230330133A1, “METHODS FOR THE TREATMENT OF CHOLESTEROL CRYSTAL EMBOLIZATION WITH CYCLODEXTRINS” (Beren Therapeutics P.B.C., priority 2020, published 2023) are described below.

For assay [1] the following is noted: human subject, single-ascending i.v. doses 500-1,000 mg/kg every 4 weeks; after treatment vs pre-dose; FIG. 1A. As for the experimental part: A human subject was treated with 2-hydroxypropyl-beta-cyclodextrin with single-ascending doses administered intravenously every 4 weeks according to Table 1 below. […] For each dose, whole blood was collected pre-dose, post-dose (line flush), 1 hour post-dose, and 24 hours post-dose. Plasma was separated from the whole blood and subjected to a cholesterol crystal dissolution capacity (CCDC) assay using techniques similar to those described in the literature. The CCDC assay measures the ability of a sample to dissolve cholesterol crystals.

The conditions of assay [2]: pre-dose human plasma incubated ex vivo with the substance; FIG. 1B. As for the experimental part:
For each dose, whole blood was collected pre-dose, post-dose (line flush), 1 hour post-dose, and 24 hours post-dose. Plasma was separated from the whole blood and subjected to a cholesterol crystal dissolution capacity (CCDC) assay using techniques similar to those described in the literature. The CCDC assay measures the ability of a sample to dissolve cholesterol crystals.
Blood plasma pre-dose was also incubated ex vivo with 2-hydroxypropyl-beta-cyclodextrin and the ability of the plasma to dissolve cholesterol crystals was measured.

For assay [3] the following is noted: human subject, i.v. 500-1,000 mg/kg every 4 weeks, FIGS. 2A-2C. How it is done: (§1) A human subject was treated with 2-hydroxypropyl-beta-cyclodextrin with single-ascending doses administered intravenously every 4 weeks according to Table 1 below.
In this Example, a human subject was treated with 2-hydroxypropyl-beta-cyclodextrin according to Example 1, and plasma levels of 24S-hydroxycholesterol and 27-hydroxycholesterol were measured. […] 27-hydroxycholesterol is an endogenous LXR ligand leading to a downstream anti-inflammatory gene signature which may, in some embodiments, address the detrimental inflammatory response via NLRP3 inflammasome effects of cholesterol crystal embolization. The elevated 27-hydroxycholesterol is also a cellular marker of macrophage activation and increased activity for cholesterol crystal phagocytosis and clearance.

For a further assay, the system named is ABCA1. As to conditions: peripheral blood, human subject, i.v. 500-1,000 mg/kg every 4 weeks; FIGS. 3A-3D. As for the experimental part: as §1
(§2) In this Example, a human subject was treated with 2-hydroxypropyl-beta-cyclodextrin according to Example 1, and mRNA levels of the LXR transcription factor-regulated genes, ABCA1 and ABCG1, were measured. […] ABCA1 and ABCG1 are important cholesterol transporters and are responsible for cholesterol efflux from cells, loading of HDL particles for reverse cholesterol transport (RCT), and excretion via the hepatic pathway, to potentially reduce the cholesterol and cholesterol crystal emboli released into the vasculature and stabilize ruptured atherosclerotic plaque.

For another assay, the system named is ABCG1. As to conditions: peripheral blood, human subject, i.v. 500-1,000 mg/kg every 4 weeks; FIGS. 3A-3D. How it is done: as §1, §2

For 2-hydroxypropyl-beta-cyclodextrin, the “capability of blood plasma to dissolve cholesterol crystals (CCDC)” value in assay [1] is “increased capability of blood plasma to dissolve cholesterol crystals”. For the same substance, the “capacity of plasma to dissolve cholesterol crystals (CCDC)” value in assay [2] is recorded as “increased capacity to dissolve cholesterol crystals”. Besides, in assay [3], the “plasma levels of 24S-hydroxycholesterol” value is listed as “increased” and the “plasma levels of 27-hydroxycholesterol” value was “increased”. For the same substance, the total cholesterol levels result in assay [3] (plasma) is on record as “remained stable”. Besides, the “mRNA levels of ABCA1” value in the assay on ABCA1 was “increased”. Further, the “mRNA levels of ABCG1” value in the assay on ABCG1 was “increased”.
